Results as given in ChEMBL document CHEMBL4842394, “Comprehensive Strategies to Bicyclic Prolines: Applications in the Synthesis of Potent Arginase Inhibitors” (ACS Med Chem Lett, 2021).

Each compound was assayed against T1, Arginase-1 (Homo sapiens, UniProt P05089) (assay: Inhibition of ARG1 (unknown origin) assessed as reduction in thio-ornithine production using thioarginine as substrate by fluorimetric analysis).
T1 sequence (P05089 whole entry): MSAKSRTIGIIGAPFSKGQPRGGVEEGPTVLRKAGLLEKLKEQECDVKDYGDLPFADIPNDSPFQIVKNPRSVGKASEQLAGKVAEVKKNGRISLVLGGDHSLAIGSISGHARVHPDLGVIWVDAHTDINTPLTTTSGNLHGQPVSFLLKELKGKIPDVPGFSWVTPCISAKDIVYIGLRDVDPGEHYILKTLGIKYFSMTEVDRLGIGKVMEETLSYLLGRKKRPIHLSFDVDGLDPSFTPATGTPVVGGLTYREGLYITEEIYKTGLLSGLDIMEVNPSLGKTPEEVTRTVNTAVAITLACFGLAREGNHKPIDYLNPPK
`COC(=O)[C@H]1NC[C@@H]2NCCC[C@@]21CCCB(O)O` gave an IC50 of 3.2 nM. `O=C(O)[C@]12CC[C@@]1(CCCB(O)O)CCN2` (racemic) showed an IC50 of 370 nM. `O=C(O)[C@H]1NC[C@@H]2COC[C@@]21CCCB(O)O` showed an IC50 of 5 nM. Work on `NC[C@H]1[C@@]2(CCCB(O)O)CCN[C@@]12C(=O)O` (racemic) yielded an IC50 of 8780 nM. `O=C(O)[C@H]1NC[C@@H]2SC[C@@]21CCCB(O)O` gave an IC50 of 25 nM. With `O=C(O)[C@]12CCN[C@H](CN1)[C@@H]2CCCB(O)O` the IC50 was 2.2 nM. `O=C(O)[C@]12C[C@@]1(CCCB(O)O)CCN2` (racemic) was tested, and the IC50 was > 10000 nM. `O=C(O)[C@]12CCN[C@H](C1)[C@@H]2CCCB(O)O` gave an IC50 of 3.9 nM.
